Data as given in patent US20050192279A1, “Pyridazinones as antagonists of alpha4 integrins” (priority 2004, published 2005).

Legend:
TNBS induced colitis = assay: Trinitrobenzenesulfonic acid (TNBS) Induced Colitis, rats; format: in vivo, Male Wistar rats; conditions: 30 mg/kg po bid, rat
Excerpt: In Vivo Model: Trinitrobenzenesulfonic acid (TNBS) Induced Colitis The TNBS model of experimental colitis (Bobin-Dubigeon, C., Collin, X., Grimaud, N., Robert, J-M., Guillaume Le Baut, G., and Petit, J-Y. Effects of tumour necrosis factor-a synthesis inhibitors on rat trinitrobenzene sulphonic acid-induced chronic colitis. Eur. J. […] These symptomatic signs in the above—mentioned models are similar to what occur in human colitis. Male Wistar rats (200-250 g) are inoculated with 500 microliters of a solution of 10 to 20 mg of TNBS in 30% ethanol delivered intracolonically via catheter or ball-tipped gavage needle to the 8th cm from the anus. When Balb/c female mice (8-12 weeks of age) were used, the inoculation volume was 50 microliters containing 2-3 mg of TNBS in 30% ethanol delivered intracolonically via catheter or ball-tipped gavage needle to the 4th cm from the anus. During the ensuing 7 days, test animals were administered a preparation of an experimental compound. This material may be administered orally, subcutaenously or intraperitoneally, once or twice daily. At the end of this period, the animals were euthanized and their colons were collected for further analysis. Among the parameters analyzed were the length of the colon starting from the anus to the top of the cecum, the weight of the colon, the consistency of any stools found within the colon, the presence or absence of intraperitoneal adhesions on the serosal surfacr of the intestin, and the gross macroscopic appearance of the colon. […] In rats, the distal colon between the 5th and the 8th centimeter is dissected and placed in 10% neutral buffered formalin for later histological analysis. In mice, the 1st to the 4th cm was collected for histological analyses. For the following parameters—colon length, colon weight, stool consistency and appearance and macroscopic damage—a scoring system was used to describe the changes. The four scores for each animal were added to provide a Total Score. […] For the presence of blood in stool, one point was added to scores <3. […] Histological analyses of tissues consisted of staining paraffin-embedded tissue sections with hematoxylin-eosin dye. Epithelial damage scores were determined as the fraction of the tissue section showing damaged epithelium. […] Statistic analyses for these experiments performed with Graphpad Prism 4.0, using ANOVA, with Dunnets or Bonferroni's multiple comparisons test.

α4β1 = molecular target: T1, α4β1 (Homo sapiens, UniProt P05556+P13612); assay: Ramos Cell Adhesion Assay (α4β1 Mediated Adhesion/VCAM-1); format: cell-based; conditions: Ramos cell adhesion to hVCAM-1; read-out: α4β1 IC50
T1 construct: Ramos Cell Adhesion Assay (α4β1 Mediated Adhesion/VCAM-1); endogenous in cells; host or cells: Ramos cells
T1 sequence (P05556 21-798, one chain of several): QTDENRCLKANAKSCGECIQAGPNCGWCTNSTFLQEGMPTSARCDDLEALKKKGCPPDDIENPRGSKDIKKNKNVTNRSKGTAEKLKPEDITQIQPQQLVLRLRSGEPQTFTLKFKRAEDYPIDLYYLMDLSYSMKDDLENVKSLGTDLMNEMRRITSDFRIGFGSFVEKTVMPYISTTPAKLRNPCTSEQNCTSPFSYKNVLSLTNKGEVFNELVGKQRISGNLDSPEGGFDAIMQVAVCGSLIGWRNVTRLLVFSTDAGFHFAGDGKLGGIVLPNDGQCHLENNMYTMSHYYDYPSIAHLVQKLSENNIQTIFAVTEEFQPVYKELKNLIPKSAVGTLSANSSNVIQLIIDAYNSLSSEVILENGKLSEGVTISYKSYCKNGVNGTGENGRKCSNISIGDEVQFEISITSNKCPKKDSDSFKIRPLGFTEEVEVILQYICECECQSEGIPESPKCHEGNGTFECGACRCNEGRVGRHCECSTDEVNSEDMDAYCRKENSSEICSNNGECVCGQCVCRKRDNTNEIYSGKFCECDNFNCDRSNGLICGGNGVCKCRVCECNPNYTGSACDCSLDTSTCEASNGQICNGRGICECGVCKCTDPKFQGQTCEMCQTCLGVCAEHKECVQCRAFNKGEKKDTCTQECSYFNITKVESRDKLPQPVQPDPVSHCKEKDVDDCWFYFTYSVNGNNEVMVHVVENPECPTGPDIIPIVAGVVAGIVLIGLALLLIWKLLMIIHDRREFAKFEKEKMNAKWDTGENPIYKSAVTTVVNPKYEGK
How it was run: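 Plates coated overnight at 4° C with recombinant hVCAM-1 at 4.0 μg/mL, pH 9.0, then blocked in PBS/1% BSA. Calcein AM-labeled Ramos cells added with compounds and left to adhere 1 h at room temperature; after washing, cells lysed in 1 M Tris pH 8.0/1% SDS.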

human α4β7 integrin = molecular target: T2, human α4β7 integrin (Homo sapiens, UniProt P13612+P26010); assay: α4β7-K562 Cell Adhesion Assay (α4β7 Mediated Adhesion/MAdCAM-1); format: cell-based; conditions: α4β7-K562 cell adhesion to hMAdCAM-1; read-out: α4β7 IC50
T2 construct: expressed in transfected cells; host or cells: K562 cells, stably transfected
T2 sequence (P13612 34-1032): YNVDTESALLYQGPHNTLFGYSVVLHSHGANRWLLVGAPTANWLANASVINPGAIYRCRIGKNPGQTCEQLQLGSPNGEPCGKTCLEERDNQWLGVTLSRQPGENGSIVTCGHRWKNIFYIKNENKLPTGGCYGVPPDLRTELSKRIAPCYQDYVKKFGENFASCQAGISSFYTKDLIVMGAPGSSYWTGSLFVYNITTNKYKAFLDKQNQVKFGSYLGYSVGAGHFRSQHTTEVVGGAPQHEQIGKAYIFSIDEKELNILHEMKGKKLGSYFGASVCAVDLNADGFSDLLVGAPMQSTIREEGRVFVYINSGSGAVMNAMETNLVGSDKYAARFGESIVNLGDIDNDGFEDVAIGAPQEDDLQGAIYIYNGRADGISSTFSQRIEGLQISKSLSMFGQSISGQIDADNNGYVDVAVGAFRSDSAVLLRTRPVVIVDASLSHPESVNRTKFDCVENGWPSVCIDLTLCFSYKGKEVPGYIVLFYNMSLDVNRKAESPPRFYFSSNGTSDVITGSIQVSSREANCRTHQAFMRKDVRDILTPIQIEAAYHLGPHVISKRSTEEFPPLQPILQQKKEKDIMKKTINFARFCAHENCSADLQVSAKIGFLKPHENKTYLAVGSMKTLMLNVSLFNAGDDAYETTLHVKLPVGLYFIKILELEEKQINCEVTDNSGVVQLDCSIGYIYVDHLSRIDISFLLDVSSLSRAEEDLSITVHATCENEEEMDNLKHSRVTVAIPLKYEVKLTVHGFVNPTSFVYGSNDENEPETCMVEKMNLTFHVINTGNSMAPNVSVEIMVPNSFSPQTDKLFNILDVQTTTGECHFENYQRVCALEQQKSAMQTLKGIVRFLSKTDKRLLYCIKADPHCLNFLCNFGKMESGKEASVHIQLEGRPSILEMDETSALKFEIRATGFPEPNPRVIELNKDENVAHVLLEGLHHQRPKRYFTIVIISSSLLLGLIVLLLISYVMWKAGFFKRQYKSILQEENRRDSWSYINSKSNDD
T2 sequence (P26010 20-798): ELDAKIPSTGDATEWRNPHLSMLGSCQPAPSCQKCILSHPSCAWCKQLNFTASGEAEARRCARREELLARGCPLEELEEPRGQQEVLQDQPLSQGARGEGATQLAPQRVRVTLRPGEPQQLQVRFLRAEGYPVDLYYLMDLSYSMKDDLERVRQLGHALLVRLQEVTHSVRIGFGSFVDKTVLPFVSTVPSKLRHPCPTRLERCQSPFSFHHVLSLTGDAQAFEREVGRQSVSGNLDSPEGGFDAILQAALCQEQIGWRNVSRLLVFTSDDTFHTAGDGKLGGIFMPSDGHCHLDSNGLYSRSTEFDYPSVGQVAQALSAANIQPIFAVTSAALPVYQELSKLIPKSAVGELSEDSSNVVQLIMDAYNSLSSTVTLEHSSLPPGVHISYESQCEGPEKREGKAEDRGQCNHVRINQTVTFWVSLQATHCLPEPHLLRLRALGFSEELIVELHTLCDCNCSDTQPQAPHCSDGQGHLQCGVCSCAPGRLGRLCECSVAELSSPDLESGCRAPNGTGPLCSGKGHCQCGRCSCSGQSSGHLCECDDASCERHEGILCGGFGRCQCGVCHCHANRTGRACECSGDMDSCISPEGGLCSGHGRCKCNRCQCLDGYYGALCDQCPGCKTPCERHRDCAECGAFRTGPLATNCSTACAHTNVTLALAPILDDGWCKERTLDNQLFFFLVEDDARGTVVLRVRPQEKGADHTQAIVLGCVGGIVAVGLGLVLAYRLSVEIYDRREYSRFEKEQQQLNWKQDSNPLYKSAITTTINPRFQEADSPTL
How it was run: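 Anti-FLAG plates coated 1 h at 4° C with FLAG-hMAdCAM-1 in PBS pH 7.4, 1% BSA, 1 mM Mn2+. Stably transfected K562 cells expressing human α4β7, labelled with CFDA-SE, adhered with compound 1 h at room temperature. After four washes, bound cells lysed in 0.1 M NaOH for fluorescence read-out.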

IC50 (α4β1) [µM]	IC50 (human α4β7 integrin) [µM]	Compound	% Inhibition of Epithelial Damage Score (TNBS induced colitis) [%]	% Inhibition of Total Macroscopic Score (TNBS induced colitis) [%]
> 5	0.163	COc1cnn(C)c(=O)c1-c1ccc(C[C@H](NC(=O)C2(NC(=O)OC(C)(C)C)CC2)C(=O)O)cc1 [Cpd 177]	–	–
> 1	0.332	CN(C)c1cnn(C(C)(C)C)c(=O)c1-c1ccc(C[C@H](NC(=O)c2c(Cl)cccc2Cl)C(=O)O)cc1 [Cpd 155]	–	–
> 5	0.937	COc1cnn(C)c(=O)c1-c1ccc(C[C@H](NC(=O)[C@@H](NC2CCCCC2)C(C)C)C(=O)O)cc1 [Cpd 189]	–	–
> 5	0.591	COc1cnn(C)c(=O)c1-c1ccc(C[C@H](NC(=O)OCC(C)C)C(=O)O)cc1 [Cpd 175]	–	–
1.53	0.842	COc1cnn(C)c(=O)c1-c1ccc(C[C@H](NC(=O)C2(C(=O)OC(C)(C)C)CCOCC2)C(=O)O)cc1 [Cpd 186]	–	–
> 5	0.536	COc1cnn(C)c(=O)c1-c1ccc(C[C@H](NC(=O)OCC(C)(C)C)C(=O)O)cc1 [Cpd 171]	–	–
> 5	0.401	COc1cnn(C)c(=O)c1-c1ccc(C[C@H](NC(=O)C2(NC(=O)OC(C)(C)C)CCCCC2)C(=O)O)cc1 [Cpd 222]	–	–
> 5	1.22	COc1cnn(CCO)c(=O)c1-c1ccc(C[C@@H](CO)NC(=O)c2c(Cl)cccc2Cl)cc1 [Cpd 194]	–	–
> 5	1.44	COc1cnn(C)c(=O)c1-c1ccc(C[C@H](NC(=O)OCc2cccs2)C(=O)O)cc1 [Cpd 201]	–	–

The remaining lines, values behind:

Compound	IC50 (α4β1) [µM]	IC50 (human α4β7 integrin) [µM]	% Inhibition of Epithelial Damage Score (TNBS induced colitis) [%]	% Inhibition of Total Macroscopic Score (TNBS induced colitis) [%]
COc1cnn(C)c(=O)c1-c1ccc(C[C@H](NC(=O)c2cc(F)ccc2Cl)C(=O)OCCO)cc1 [Cpd 2]	> 5	–	10.25	−0.885
Cn1nc2c(c(-c3ccc(C[C@H](NC(=O)c4c(Cl)cccc4Cl)C(=O)O)cc3)c1=O)NCCO2 [Cpd 13, (S)-2-(2,6-Dichloro-benzoylamino)-3-[4-(2-methyl-3-oxo-3,5,6,7-tetrahydro-2H-pyridazino[3,4-b][1,4]oxazin-4-yl)-phenyl]-propionic acid]	0.13	0.002	–	–
Cn1ncc(N2CCOCC2)c(-c2ccc(C[C@H](NC(=O)c3c(Cl)cccc3Cl)C(=O)O)cc2)c1=O [Cpd 20]	0.484	0.003	–	–
COc1cnn(C)c(=O)c1-c1ccc(C[C@H](NC(=O)C2C(C)(C)C2(C)C)C(=O)O)cc1 [Cpd 136, (S)-3-[4-(5-Methoxy-2-methyl-3-oxo-2,3-dihydro-pyridazin-4-yl)-phenyl]-2-[(2,2,3,3-tetramethyl-cyclopropanecarbonyl)-amino]-propionic acid]	1.16	0.179	–	–
COc1cnn(C)c(=O)c1-c1ccc(C[C@H](NC(=O)C2(N)CCOCC2)C(=O)O)cc1 [Cpd 116]	0.656	0.097	–	–
COc1cnn(C)c(=O)c1-c1ccc(C[C@H](NC(=O)c2ccc[nH]2)C(=O)O)cc1 [Cpd 84]	> 5	0.041	–	–
COc1cnn(C)c(=O)c1-c1ccc(C[C@H](NC(=O)C23CCC(CC2)CN3C(=O)OC(C)(C)C)C(=O)O)cc1 [Cpd 126]	2.46	0.127	–	–
